Laboratory results reported in patent publication US10590086B2, “Pharmaceutical compound” (IOmet Pharma Ltd., priority 2014, dated 2020).

Key:
[1] = target: T1, IDO (Homo sapiens, UniProt P14902); test: SKOV3 kynurenine cell-based assay (IDO induced by IFN-γ); parameters: IDO expression was induced in the SKOV3 cells by the addition of 500 ng/ml IFN-γ; endogenous in cells; host or cells: SKOV3 (human ovarian adenocarcinoma), induced with IFN-γ; details: SKOV3 human ovarian adenocarcinoma cells, 500 ng/ml IFN-γ, 48 hours, 500 μM L-tryptophan; read-out: SKOV3 Kynurenine cell based assay pIC50 (converted)
T1 sequence (P14902 whole entry): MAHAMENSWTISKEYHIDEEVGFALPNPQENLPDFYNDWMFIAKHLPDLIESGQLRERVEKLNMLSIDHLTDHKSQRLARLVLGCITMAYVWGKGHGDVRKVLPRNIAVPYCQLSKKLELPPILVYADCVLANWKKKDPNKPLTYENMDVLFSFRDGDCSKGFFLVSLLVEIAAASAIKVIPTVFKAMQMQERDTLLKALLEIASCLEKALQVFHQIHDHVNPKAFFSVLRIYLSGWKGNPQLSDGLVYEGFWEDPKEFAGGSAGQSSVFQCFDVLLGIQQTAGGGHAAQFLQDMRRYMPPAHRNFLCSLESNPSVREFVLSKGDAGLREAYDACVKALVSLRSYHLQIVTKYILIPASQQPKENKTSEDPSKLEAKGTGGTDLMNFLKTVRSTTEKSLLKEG
Outline: (§1)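 Cellular kynurenine production, TDO via A172 glioblastoma and IDO via IFN-γ-stimulated SKOV3 ovarian adenocarcinoma cells, was quantified after 48 hours' compound treatment in 500 μM L-tryptophan medium, using Erhlich's reagent and absorbance at 490 nm.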

[2] = target: T2, TDO (Homo sapiens, UniProt P48775); test: A172 kynurenine cell-based assay; parameters: This assay utilised cancer cells which expressed either TDO or IDO; endogenous in cells; host or cells: A172 (human glioblastoma); details: A172 human glioblastoma cells, 48 hours, 500 μM L-tryptophan; read-out: A172 Kynurenine cell based assay pIC50 (converted)
T2 sequence (P48775 whole entry): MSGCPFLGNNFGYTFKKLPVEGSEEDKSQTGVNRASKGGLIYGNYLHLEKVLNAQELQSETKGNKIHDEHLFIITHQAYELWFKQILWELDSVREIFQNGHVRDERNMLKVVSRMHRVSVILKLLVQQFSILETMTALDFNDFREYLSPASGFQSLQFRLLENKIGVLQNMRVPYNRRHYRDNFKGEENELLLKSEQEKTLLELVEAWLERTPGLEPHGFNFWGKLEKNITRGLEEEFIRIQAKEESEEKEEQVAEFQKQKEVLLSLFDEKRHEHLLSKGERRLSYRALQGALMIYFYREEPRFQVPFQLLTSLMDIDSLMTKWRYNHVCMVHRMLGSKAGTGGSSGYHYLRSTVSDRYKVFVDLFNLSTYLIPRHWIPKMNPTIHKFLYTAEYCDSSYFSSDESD
Outline: as §1

[3] = target: T1, IDO; test: hIDO biochemical coupled assay; details: 45 μM L-tryptophan, 17 minutes, room temperature; read-out: hIDO biochemical assay pIC50 (converted)
[4] = target: T2, TDO; test: hTDO biochemical coupled assay; details: 330 μM L-tryptophan, 17 minutes, room temperature; read-out: hTDO biochemical assay pIC50 (converted)

IC50 [1] [µM]	IC50 [2] [µM]	IC50 [3] [µM]	IC50 [4] [µM]	SMILES
3.24 to 31.6	< 3.16	3.24 to 31.6	< 3.16	CNC(=O)c1ccc(C2CCN(c3cc(Cl)cc4[nH]ncc34)CC2)cc1 [Compound 440]
< 3.16	< 3.16	> 100	< 3.16	CC(=O)Nc1ccc(C2CCN(c3cc(Cl)cc4[nH]ncc34)CC2)cc1 [Compound 441]
> 100	< 3.16	3.24 to 31.6	< 3.16	Clc1cc(N2CCC(c3cscn3)CC2)c2cn[nH]c2c1 [Compound 442]
> 100	< 3.16	> 100	< 3.16	O=C1NC(=O)C(C2CCN(c3cc(Cl)cc4[nH]ncc34)CC2)N1 (centres unmarked) [Compound 443]
> 100	< 3.16	> 100	< 3.16	CN1C(=O)NC(C2CCN(c3cc(Cl)cc4[nH]ncc34)CC2)C1=O (centres unmarked) [Compound 444]
< 3.16	< 3.16	> 100	< 3.16	CNC(=O)c1ccc(N2CCN(c3cc(Cl)cc4[nH]ncc34)CC2)cc1 [Compound 445]
< 3.16	< 3.16	> 100	< 3.16	CC(=O)NCC1(C)CN(c2cc(Cl)cc3[nH]ncc23)C1 [Compound 446]
3.24 to 31.6	< 3.16	3.24 to 31.6	< 3.16	CN(C1CCN(c2cc(Cl)cc3[nH]ncc23)CC1(C)C)S(C)(=O)=O (centres unmarked) [Compound 449]
< 3.16	< 3.16	< 3.16	< 3.16	CC(=O)N(C)C1CCN(c2cc(Cl)cc3[nH]ncc23)CC1(C)C (centres unmarked) [Compound 450]
> 100	< 3.16	32.4 to 100	< 3.16	Clc1cc(N2CCC(N3CCOCC3)CC2)c2cn[nH]c2c1 [Compound 451]
< 3.16	< 3.16	> 100	< 3.16	CC(=O)N1CCC2(CC1)CN(c1cc(Cl)cc3[nH]ncc13)C2 [Compound 452]
> 100	< 3.16	3.24 to 31.6	< 3.16	CS(=O)(=O)N1CCN(C2CCN(c3cc(Cl)cc4[nH]ncc34)CC2)CC1 [Compound 453]
> 100	< 3.16	32.4 to 100	< 3.16	CC(=O)N1CCN(c2cc(Cl)cc3[nH]ncc23)CC1CO (centres unmarked) [Compound 454]

SMILES	IC50 [1] [µM]	IC50 [2] [µM]	IC50 [3] [µM]	IC50 [4] [µM]
O=C1N[C@H]2CC[C@@H]1CN(c1cc(C(F)(F)F)cc3[nH]ncc13)C2 [Compound 439]	> 100	< 3.16	3.24 to 31.6	< 3.16
CN1C(=O)[C@@H]2CC[C@H]1CN(c1cc(C(F)(F)F)cc3[nH]ncc13)C2 [Compound 447]	> 100	< 3.16	3.24 to 31.6	< 3.16
Clc1cc(N2C[C@H]3CC[C@@H](C2)NC3)c2cn[nH]c2c1 [Compound 448]	> 100	< 3.16	3.24 to 31.6	< 3.16
CN1C(=O)[C@@H]2CC[C@H]1CN(c1cc(Br)cc3[nH]ncc13)C2 [Compound 455]	> 100	< 3.16	3.24 to 31.6	< 3.16
